{
  "source": "patent US20190231771A1",
  "about": "“METHODS FOR TREATMENT AND PREVENTION OF OPIOID INDUCED CONSTIPATION USING ORAL COMPOSITIONS OF METHYLNALTREXONE” (Salix Pharmaceuticals, Ltd., priority 2011, published 2019)",
  "key": {"[1]": {"conditions": "cited from earlier work"}, "[2]": {"assay": "Food effect study: single oral 450 mg MNTX fasted vs high-fat breakfast, 2-period crossover", "assay_type": "in vivo, human", "conditions": "for Cmax / half-life / AUC(0-inf) / AUC(0-t) / Tmax: both sexes, human, plasma, oral, 450 mg; for half-life: harmonic mean; for Tmax: median", "method": "Presented herein is a single-dose, 2-period crossover study to evaluate the effect of a standard high-fat breakfast on the pharmacokinetics of a single oral dose of 450 mg (3×150 mg tablets) MNTX. The study had 2 arms and 2 dosing periods.\nThirty-two subjects were enrolled into this study. Subjects were randomized at a 1:1 ratio to Arm 1 (fasted then fed) or Arm 2 (fed then fasted). Randomization was stratified by sex. Each subject received a single dose of MNTX 450 mg (administered as 3×150 mg tablets) with a high fat meal (MNTX fed) and after fasting (MNTX fasted). The fasted/fed study periods were separated by 7 days. The sequence of fasted/fed or fed/fasted dosing on Days 1 and 8 was determined by randomization on Day 1.\nFor the fasted treatment, a single 450 mg (3×150 mg) oral dose of MNTX tablets was administered to subjects following a supervised overnight fast of at least 10 hours. No food was allowed for at least 4 hours post dose.\nFor the fed treatment, a standard high-fat breakfast was given to the subjects following an overnight fast of at least 10 hours. A single 450 mg (3×150 mg) oral dose of MNTX tablets was administered to subjects 30 minutes after the subject began the meal. No food was allowed for at least 4 hours after drug administration.\nSubjects were administered a single oral dose of MNTX tablets (450 mg) on Day 1 and Day 8 after a high fat meal or fasting as follows: (a) MNTX 450 mg (orally as 3×150 mg tablets) administered after a high-fat (high caloric) breakfast, or (b) MNTX 450 mg (orally as 3×150 mg tablets) administered after fasting.\nSubjects received a single dose of MNTX 450 mg administered orally as 3×150 mg tablets immediately after a high fat/high calorie meal (MNTX fed) and after fasting (MNTX fasted). A 7-day washout period separated the fasted/fed crossover periods. The sequence of fasted/fed or fed/fasting dosing on Days 1 and 8 was determined by randomization on Day 1. Subjects fasted overnight for a minimum of 10 hours prior to administration of a high fat meal with the single dose of study drug (MNTX fed) or 10 hours prior to administration of the single dose of study drug (MNTX fasted).\nEach dose on Day 1 and 8 was administered with 240 mL of room temperature drinking water, and the subjects were instructed to drink all of the water. No food was permitted for 4 hours after drug administration and water was allowed as desired except for 1 hour before and after drug administration. Approximately 4 hours after dosing, a normal meal schedule could be resumed.\nA high fat/high caloric meal includes fat content of approximately 50% of total calories in the meal (approximately 800 to 1000 calories total). Subjects receiving the MNTX fed treatment regimen were required to fast for at least 10 hours before breakfast and then to eat the protocol-specified breakfast starting 30 minutes before dosing. The high-fat, high caloric breakfast consisted of the following: • Two slices of toast with ½ pat of butter on each slice. • Two eggs fried in butter. • Two strips of bacon. • Four ounces (113 g) hash brown potatoes. • Eight ounces (240 mL) of whole milk.\nPlasma concentrations of MNTX were determined using a validated analytical procedure involving high performance liquid chromatography with tandem quadrupole mass spectrometric detection. Blood samples for determination of MNTX concentrations in plasma were obtained predose (approximately 1 hour prior to dose administration) on Day 1, and at 0.25, 0.5, 1, 2, 4, 6, 8, 10, 12, 16, 24, 36, 48, 72, 96, 120, 144 and 168 hours following each dose administration on Days 1 and 8. Pharmacokinetic parameters that were measured and calculated include the following: […]"}, "[3]": {"conditions": "rats; cited from earlier work"}, "[4]": {"assay": "Study B: single and multiple dose pharmacokinetics after 20-minute intravenous infusion of 24 mg methylnaltrexone", "assay_type": "in vivo, human", "conditions": "24 mg IV infusion; for AUC(0-inf) / Cmax: iv, 24 mg; for Cmax: read-out: Cmax", "method": "Presented herein is a clinical pharmacokinetics study, Study C, as well as Studies A and B. Study A investigated the single and multiple dose pharmacokinetics of methylnaltrexone (MNTX) and its metabolites (M2: methylnaltrexone sulfate; M4: 6α-methylnaltrexol; and M5: 6β-methylnaltrexol) following the subcutaneous administration of 12 mg methylnaltrexone. In Study B, the single and multiple dose pharmacokinetics of methylnaltrexone (MNTX) and its metabolites (M2, M4, and M5) were examined following a 20-minute short intravenous infusion of 24 mg of methylnaltrexone (MNTX).\nPharmacokinetic parameters included Cmax, AUCt, AUCinf, tmax, t1/2, % Re24, accumulation factor (R) as defined below and metabolite/parent drug ratio.\nR=Accumulation Factor(based on AUC0-24(ng·h/mL):Day 7 AUC AUC0-24/Day 1 AUC0-24\nMetabolite-Parent Drug ratio(based on ng·h/mL)(%)=100*(Metabolite AUC24/MNTX AUC24)\nNote: AUCinf was used in place of AUC AUC0-24 for R and Metabolite-Parent Drug ratio computations following IV administration."}, "[5]": {"conditions": "orally administered MNTX, other studies"}, "[6]": {"conditions": "450 mg Single-Dose Fasted, mean"}},
  "note": "Several values for one entry are separate records, joined by “and”; a condition that tells them apart may be missing. Equal values may be shown once. Entries after “also recorded” stand apart in the source; their conditions may differ.",
  "data": [
    {"compound": "C[N@+]1(CC2CC2)CC[C@]23c4c5ccc(O)c4O[C@H]2C(=O)CC[C@@]3(O)[C@H]1C5.[Br-]", "note": "[MNTX, (R)—N-(cyclopropylmethyl) noroxymorphone methobromide]", "values": [
      {"measurement": "bioavailability (in words)", "setting": "[1]; [5]", "result": "low bioavailability"},
      {"measurement": "plasma protein binding (in words)", "setting": "[1]; [5]", "result": "low plasma protein binding"},
      {"measurement": "tissue distribution (in words)", "setting": "[1]; [5]", "result": "limited tissue distribution outside the GI tract"},
      {"measurement": "increase of systemic absorption by fasting", "setting": "[1]; prior study", "result": "approximately 25%"},
      {"measurement": "CL/F", "setting": "[2]; [6]", "result": 1608644, "unit": "mL/h"},
      {"measurement": "λz", "setting": "[2]; [6]", "result": "0.04 h⁻¹ and 0.0403 h⁻¹"},
      {"measurement": "CL/F", "setting": "[2]; 450 mg Single-Dose Fed, mean", "result": 2961340, "unit": "mL/h"},
      {"measurement": "λz", "setting": "[2]; 450 mg Single-Dose Fed, mean", "result": "0.04 h⁻¹ and 0.0413 h⁻¹"},
      {"measurement": "AUC0-∞ Geometric Mean Ratio, fasted divided by fed", "setting": "[2]; 450 mg single dose", "result": 198.17, "unit": "%"},
      {"measurement": "AUClast Geometric Mean Ratio, fasted divided by fed", "setting": "[2]; 450 mg single dose", "result": 199.28, "unit": "%"},
      {"measurement": "AUClast and AUC0-∞ higher in fasted as compared with fed subjects", "setting": "[2]; 450 mg single dose", "result": "approximately 2 fold"},
      {"measurement": "Cmax Geometric Mean Ratio, fasted divided by fed", "setting": "[2]; 450 mg single dose", "result": "273.6% and 273.62%"},
      {"measurement": "arithmetic mean Cmax in fed subjects as share of that in fasted subjects", "setting": "[2]; 450 mg single dose", "result": "~28", "unit": "%"},
      {"measurement": "decrease of systemic exposure by food (as determined by AUC and Cmax)", "setting": "[2]; 450 mg single dose", "result": "approximately half to three quarters"},
      {"measurement": "systemic exposure (AUClast and AUC0-∞) lower in fed than in fasted subjects", "setting": "[2]; 450 mg single dose", "result": "approximately 50%"},
      {"measurement": "bioequivalence under fed and fasted conditions (80% to 125% range)", "setting": "[2]; 450 mg single dose, Cmax, AUClast, AUC0-∞", "result": "nonbioequivalence; also recorded: non-bioequivalent; also recorded: not bioequivalent"},
      {"measurement": "deaths, SAEs, TEAEs resulting in study discontinuation", "setting": "[2]; 450 mg single doses", "result": "no deaths, SAEs, or TEAEs resulting in study discontinuation"},
      {"measurement": "effect on cardiac safety parameters or vital signs", "setting": "[2]; 450 mg single doses", "result": "No significant effect"},
      {"measurement": "intensity of TEAEs", "setting": "[2]; 450 mg single doses", "result": "mild"},
      {"measurement": "relation of TEAEs to MNTX (investigator)", "setting": "[2]; 450 mg single doses", "result": "No TEAEs were considered by the investigator to be related to MNTX"},
      {"measurement": "subjects with headache (most frequent TEAE)", "setting": "[2]; 450 mg single doses, 32 subjects", "result": 6, "unit": "%"},
      {"measurement": "subjects experiencing at least 1 TEAE", "setting": "[2]; 450 mg single doses, 32 subjects, whole study", "result": 16, "unit": "%"},
      {"measurement": "Cmax", "setting": "[2]; 450 mg Single-Dose Fasted, arithmetic mean, read-out: Cmax", "result": 45.5, "unit": "ng/mL"},
      {"measurement": "half-life", "setting": "[2]; 450 mg Single-Dose Fasted", "result": "~17", "unit": "h"},
      {"measurement": "AUC(0-inf)", "setting": "[2]; 450 mg Single-Dose Fasted, mean, read-out: AUC0-∞", "result": 364, "unit": "ng·h/mL"},
      {"measurement": "AUC(0-t)", "setting": "[2]; 450 mg Single-Dose Fasted, mean, read-out: AUClast", "result": 361, "unit": "ng·h/mL"},
      {"measurement": "Tmax", "setting": "[2]; 450 mg Single-Dose Fasted", "result": 2, "unit": "h"},
      {"measurement": "Cmax", "setting": "[2]; 450 mg Single-Dose Fed, arithmetic mean, read-out: Cmax", "result": 12.9, "unit": "ng/mL"},
      {"measurement": "half-life", "setting": "[2]; 450 mg Single-Dose Fed", "result": "~17", "unit": "h"},
      {"measurement": "AUC(0-inf)", "setting": "[2]; 450 mg Single-Dose Fed, mean, read-out: AUC0-∞", "result": 169, "unit": "ng·h/mL"},
      {"measurement": "AUC(0-t)", "setting": "[2]; 450 mg Single-Dose Fed, mean, read-out: AUClast", "result": 166, "unit": "ng·h/mL"},
      {"measurement": "Tmax", "setting": "[2]; 450 mg Single-Dose Fed", "result": 4, "unit": "h"},
      {"measurement": "AUC(0-inf)", "setting": "[2]; 450 mg single dose, Fasted, read-out: AUC0-∞, Geometric Least Squares Mean", "result": 317, "unit": "ng·h/mL"},
      {"measurement": "AUC(0-t)", "setting": "[2]; 450 mg single dose, Fasted, read-out: AUClast, Geometric Least Squares Mean", "result": 314, "unit": "ng·h/mL"},
      {"measurement": "Cmax", "setting": "[2]; 450 mg single dose, Fasted, read-out: Cmax, Geometric Least Squares Mean", "result": 33.4, "unit": "ng/mL"},
      {"measurement": "AUC(0-inf)", "setting": "[2]; 450 mg single dose, Fed, read-out: AUC0-∞, Geometric Least Squares Mean", "result": 160, "unit": "ng·h/mL"},
      {"measurement": "AUC(0-t)", "setting": "[2]; 450 mg single dose, Fed, read-out: AUClast, Geometric Least Squares Mean", "result": 158, "unit": "ng·h/mL"},
      {"measurement": "Cmax", "setting": "[2]; 450 mg single dose, Fed, read-out: Cmax, Geometric Least Squares Mean", "result": 12.2, "unit": "ng/mL"},
      {"measurement": "subjects with TEAEs", "setting": "[2]; fasted dosing period", "result": "Four"},
      {"measurement": "subjects with TEAEs", "setting": "[2]; fed dosing period", "result": 3, "unit": "subjects"},
      {"measurement": "tolerability", "setting": "[2]; single dose of MNTX 450 mg", "result": "well tolerated"},
      {"measurement": "estimated bioavailability after oral administration", "setting": "[3]", "result": "less than 1%"},
      {"measurement": "R (IV), accumulation factor", "setting": "[4]; AUCinf used", "result": 1.17},
      {"measurement": "AUC(0-inf)", "setting": "[4]; human, in vivo, Day 1, mean", "result": 396, "unit": "ng·h/mL"},
      {"measurement": "Cmax", "setting": "[4]; human, in vivo, Day 1, mean", "result": 533, "unit": "ng/mL"},
      {"measurement": "AUC(0-inf)", "setting": "[4]; human, in vivo, Day 7, mean", "result": 375, "unit": "ng·h/mL"},
      {"measurement": "Cmax", "setting": "[4]; human, in vivo, Day 7, mean", "result": 520, "unit": "ng/mL"},
      {"measurement": "half-life", "setting": "[4]; human, in vivo, day not given", "result": 10.8, "unit": "h"},
      {"measurement": "AUC(0-t)", "setting": "[4]; human, in vivo, day not given, mean, read-out: AUC0-6", "result": 326, "unit": "ng·h/mL"}
    ]}
  ]
}
